Laboratory results published in paper PMC6701825, “Antiproliferative and Antimigratory Effects of a Novel YAP–TEAD Interaction Inhibitor Identified Using in Silico Molecular Docking” (Journal of Medicinal Chemistry, 2019).

Experiments:
[1] = target: T1, myc-TEAD1:GFP-YAP complexes (Homo sapiens, UniProt P28347); test: Co-immunoprecipitation of myc-TEAD1 and GFP-YAP; assay type: binding; conditions: 200 μM CPD3
T1 construct: #17843 (GFP-YAP1); host or cells: HeLa
Description: Figure 1 BUDE screening-identified compound 3 for TEAD inhibition. (A) HeLa cells were stably transduced with a lentiviral viral vector containing 8×TEAD-secreted nanoluciferase reporter gene (TEAD-NLUC). Cells were transfected with non-targeting siRNA (siNEG), siRNA targeting YAP (siYAP), control adenoviral vector or an adenovirus expression constitutively active YAPS127A (Ad:YAP). Culture media were conditioned for 6 h and assayed for secreted nanoluciferase activity (n = 3). (B) HeLa cells stably transduced with TEAD-NLUC were treated with 100 μM of indicated compound for 6 h. Cell conditioned media were assayed for nanoluciferase activity (n = 3). […] (D) Recombinant GST-TEAD1 protein bound to glutathione resin was incubated with 200 μM of the indicated compounds and HEK293 cell lysate containing endogenous YAP protein for 18 h at 4 °C. The resin was washed, and bound YAP eluted and quantified by Western blotting (n = 2). […] Co-immunoprecipitated YAP or TEAD was quantified by Western blotting. […]
HeLa cells were transiently transfected with either pRK5-myc-TEAD1 (Addgene #33109) or pEGFP-C3-YAP1 (Addgene #17843). […] Following washing, immunoprecipitated proteins were eluted by boiling in sodium dodecyl sulfate (SDS) buffer (50 mM Tris pH 6.8, 20% glycerol, 2% SDS) and analyzed by Western blotting.

MCF7 cells = test: EdU proliferation assay in MCF7 cells; assay type: cell-based, human; conditions: MCF7, YAP-TEAD-independent growth, 18 hours then 6 hours EdU
Description: Cell proliferation was measured using the Click-iT EdU 488 assay (Sigma-Aldrich). Briefly, the cells were treated with indicated concentrations of compounds for 24 h with the last 4 h being in the presence of 10 μM EdU. The cells were fixed in 4% formaldehyde and stained for EdU incorporation, following the kit’s standard protocol. The cells were counterstained with Hoechst 33342 nucleic acid for 20 min. Fluorescent images of at least three fields of view per well were counted using ImageJ software. Real-time analysis of cell migration was performed using an IncuCyte ZOOM live cell imaging system (Essen BioScience) according to the manufacturer’s instructions. Briefly, the cells were seeded (1.2 × 10^4 cells/well for HeLa cells, 1.5 × 10^4 cells/well for RaVSMCs, and 1 × 10^4 cells/well) into ImageLock 96-well plates. After 36 h, the cells were pretreated overnight with indicated concentrations of compounds. The wells were scratched using a WoundMaker tool, and the media were replaced containing test compounds. Phase contrast images of cell migration into the wounded area were acquired hourly for 24 h. Relative wound confluence was calculated using the Cell Migration Image analysis module of the IncuCyte ZOOM software. […]
MCF7 cells were incubated with the indicated concentrations of CPD3.1 (n=3). […] Edu incorporation in to newly synthesised DNA was detected using the Edu-Click detection kit. […]

HuVSMC = test: Real-time IncuCyte scratch wound migration assay in HuVSMC; assay type: cell-based, human; conditions: HuVSMC, 0.25, 0.5, 2, and 10 μM
Description: Figure 9 Compound 3.1 inhibits TEAD target gene expression, cell proliferation, and cell migration in RaVSMCs. RaVSMCs stably transduced with TEAD-NLUC (A) or transiently transfected with CCN1-LUC or CTGF-LUC were treated with the indicated concentrations of compound 3.1 for 6 hr. Cell conditioned media (A) or cell lysates (B−C) were assayed for nanoluciferase or fire-fly luciferase activity, respectively. VSMC were treated with 60 μM compound 3.1 for 6 h (n = 3). Total RNA was analyzed for mRNA levels of TEAD-target genes (D) or constitutive housekeeping genes (E) by qRT-PCR. VSMC were treated with indicated concentrations of compound 3.1 for 16 hr (n = 4). Total cell lysates were analyzed for CCN1 protein expression by Western blotting (F). RaVSMCs (G) or HuVSMC (H) were treated with indicated concentrations of compound 3.1 for 18 h followed by labeling in 10 μM EdU for a further 6 h (n = 4). RaVSMCs (I) or HuVSMC (J) were treated with indicated concentrations of compound 3.1 and cell migration quantified using IncuCyte real time migration assay (n = 4).
Cell proliferation was measured using the Click-iT EdU 488 assay (Sigma-Aldrich). […] Fluorescent images of at least three fields of view per well were counted using ImageJ software. […] Relative wound confluence was calculated using the Cell Migration Image analysis module of the IncuCyte ZOOM software.

T1 sequence (P28347 whole entry, one chain of several): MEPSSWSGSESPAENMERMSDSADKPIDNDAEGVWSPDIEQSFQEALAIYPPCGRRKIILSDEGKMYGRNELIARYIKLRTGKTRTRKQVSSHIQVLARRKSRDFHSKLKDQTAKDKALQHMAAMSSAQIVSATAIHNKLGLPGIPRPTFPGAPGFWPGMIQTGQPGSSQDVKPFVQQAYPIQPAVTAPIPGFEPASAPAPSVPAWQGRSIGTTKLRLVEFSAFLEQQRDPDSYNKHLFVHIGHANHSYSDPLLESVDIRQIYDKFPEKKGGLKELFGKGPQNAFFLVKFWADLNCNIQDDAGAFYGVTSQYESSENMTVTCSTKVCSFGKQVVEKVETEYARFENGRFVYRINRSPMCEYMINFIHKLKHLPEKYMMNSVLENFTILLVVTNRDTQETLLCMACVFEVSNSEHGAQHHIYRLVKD

Cc1ccc2c(c1)c1c3n2CCN(CC(O)CN2CCN(C(=O)c4ccco4)CC2)C3CCC1 (stereo not shown) [CPD3]
binding of GFP-YAP to immunoprecipitated myc-TEAD1 (myc-Trap co-IP) [1]: inhibited binding of GFP–YAP | binding of myc-TEAD1 to affinity-purified GFP-YAP (GFP-Trap co-IP) [1]: inhibited binding of myc-TEAD1

Cc1ccc2c(c1)c1c3n2CCNC3CCC1 (stereo not shown) [CPD3.1]
proliferation of MCF7 cells (EdU) (MCF7 cells): did not inhibit the proliferation of MCF7 cells | cell migration (scratch wound) (HuVSMC): inhibited in a dose-dependent manner
